Test results reported in US20230192683A1, “FUSED RING COMPOUNDS, PREPARATION METHOD THEREFOR, PHARMACEUTICAL COMPOSITIONS AND USE THEREOF” (priority 2020, published 2023).
Marks after values point to notes of the source that are not given here.

How the values were obtained:
rat CFA pain model [1] = test: multi-dose oral pharmacodynamic study in rat CFA pain model (Von Frey PWT); type: in vivo
Description: The efficacy of Compound 1a and Compound 14 in the rat CFA pain model was evaluated using a mechanical allodynia method.
SD rats, 72 males, divided into 9 groups, were purchased from Beijing Vital River Laboratory Animal Technology Co., Ltd.
The experimental animals were adaptively reared for 3 to 7 days, and 8 of them were selected as a normal control group, and the other animals were injected with 50 µL of CFA in the center of the left hind paw for modeling. 24 hours after injection, the animals were tested for paw withdrawal threshold (PWT) basal values, and were divided into groups according to the basal values, which were solvent control group, indomethacin group, Compound 1a, 10 mpk group, Compound 1a, 30 mpk group, Compound 1a, 100 mpk group, Compound 14, 3 mpk group, Compound 14, 10 mpk group, and Compound 14, 30 mpk group, with 8 animals in each group. Subsequently, the animals were weighed and administered orally according to Table 6. All the animals were tested for paw withdrawal thresholds (PWT) using Von Frey 1, 2, and 4 hours after administration to further evaluate the efficacy of the compounds of the present invention.

human SSTR3 = molecular target: T1, human SSTR3 (Homo sapiens, UniProt P32745); test: biochemical; conditions: 25° C., 2 hours, Cheng-Prusoff; read-out: Binding Ki (nM) SSTR3
T1 construct: expressed in transfected cells; host or cells: CHO-K1 (membrane homogenates)
Description: (§1) Cell membranes were then filtered and washed, and protein-bound radioactivity was measured with a suitable instrument. The Ki values of corresponding targets were calculated using a Cheng-Prusoff formula.

human SSTR5 = molecular target: T2, human SSTR5 (Homo sapiens, UniProt P35346); test: biochemical; conditions: 25° C., 2 hours, Cheng-Prusoff; read-out: Binding Ki (nM) SSTR5
T2 construct: expressed in transfected cells; host or cells: CHO-K1 (membrane homogenates)
Description: as §1

human SSTR2 = molecular target: T3, human SSTR2 (Homo sapiens, UniProt P30874); test: biochemical; conditions: 25° C., 2 hours, Cheng-Prusoff; read-out: Binding Ki (nM) SSTR2
T3 construct: expressed in transfected cells; host or cells: CHO-K1 (membrane homogenates)
Description: as §1

human SSTR1 = molecular target: T4, human SSTR1 (Homo sapiens, UniProt P30872); test: biochemical; conditions: 25° C., 2 hours, Cheng-Prusoff; read-out: Binding Ki (nM) SSTR1
T4 construct: expressed in transfected cells; host or cells: CHO-K1 (membrane homogenates)
Description: as §1

rat CFA pain model [2] = test: single-dose pharmacodynamic study in rat CFA pain model (Von Frey PWT); type: in vivo; conditions: for Mechanical allodynia test (PWT (g), mean) Baseline: 10 mg/kg I.P. group, baseline 24 h after CFA, before administration; for Mechanical allodynia test (PWT (g), mean) 1 hour: 1 hour after single administration; for Mechanical allodynia test (PWT (g), mean) 3 hours: 3 hours after single administration; for inhibition of CFA-induced mechanical allodynia (in words): single administration, FIG. 1
Description: Each male SD rat (7-8 weeks old) was injected with 50 microliters of CFA in the center of the left hind paw. A PWT basal value test was conducted 24 hours after modeling, and the drugs were administered after randomization.
There were 8 animals in each group, and the animals were weighed and administered according to Table 4.
For all groups of animals, paw withdrawal thresholds (PWTs) of the animals were tested using Von Frey after 1 h and 3 h of single administration.

human SSTR4 = molecular target: T5, human SSTR4 (Homo sapiens, UniProt P31391); test: radioligand binding assay, [125I]Somatostatin-14, CHO-K1 membranes
T5 construct: expressed in transfected cells
Description: as §1

[3] = pharmacokinetic evaluation in rats after oral and intravenous administration; type: in vivo; conditions: Sprague-Dawley, rat, plasma, male SD rats, oral 10.0 mg/kg, intravenous 1.0 mg/kg, route and unit inferred
Description: Using rats as test animals, an LC/MS/MS method was used to determine the drug concentrations in plasma at different times after oral and intravenous administration of Compound 1a and Compound 14 in the rats. The pharmacokinetic behavior of the compounds of the present invention in rats was studied, and pharmacokinetic characteristics thereof were evaluated.
For each compound, 6 healthy adult SD (Sprague-Dawley) rats, male, were divided into oral and intravenous administration groups, 3 rats in each group, purchased from Shanghai SIPPR/BK Laboratory Animal Co., Ltd., animal production license number: SCXK (Shanghai) 2008-0016.
A specific amount of the drug was weighed and dissolved in 5% dimethylacetamide (DMA) + 5% polyethylene glycol-15 hydroxystearate (solutol) + 90% saline solution to prepare a 0.2 mg/mL solution.
The SD rats were fasted overnight and were administered orally and intravenously. The oral dose was 10.0 mg/kg, and the intravenous dose was 1.0 mg/kg.
Compound 1a and Compound 14 were administered orally and intravenously to the rats. At 0.083, 0.25, 0.5, 1, 2, 4, 8, and 24 hours after administration, 0.2 mL of blood was collected from the submandibular vein or other suitable blood vessels, placed in K2-EDTA tubes, and then stored on ice. Within one hour, the plasma was separated by centrifugation at 6,800 g for 6 minutes at 2-8° C., and stored at -80° C. for LC/MS/MS analysis. The rats were fed 4 hours after administration.

T5 sequence (P31391 whole entry): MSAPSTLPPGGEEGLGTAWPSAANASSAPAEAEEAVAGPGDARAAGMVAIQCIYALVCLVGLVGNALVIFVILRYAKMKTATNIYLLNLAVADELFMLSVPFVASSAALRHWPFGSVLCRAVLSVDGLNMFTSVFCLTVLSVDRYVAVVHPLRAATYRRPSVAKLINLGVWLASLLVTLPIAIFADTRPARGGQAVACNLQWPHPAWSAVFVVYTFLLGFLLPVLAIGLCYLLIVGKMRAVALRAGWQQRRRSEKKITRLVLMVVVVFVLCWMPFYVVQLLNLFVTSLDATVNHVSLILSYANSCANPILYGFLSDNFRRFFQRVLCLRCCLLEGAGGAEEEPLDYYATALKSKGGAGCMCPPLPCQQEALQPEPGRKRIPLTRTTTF
T3 sequence (P30874 whole entry): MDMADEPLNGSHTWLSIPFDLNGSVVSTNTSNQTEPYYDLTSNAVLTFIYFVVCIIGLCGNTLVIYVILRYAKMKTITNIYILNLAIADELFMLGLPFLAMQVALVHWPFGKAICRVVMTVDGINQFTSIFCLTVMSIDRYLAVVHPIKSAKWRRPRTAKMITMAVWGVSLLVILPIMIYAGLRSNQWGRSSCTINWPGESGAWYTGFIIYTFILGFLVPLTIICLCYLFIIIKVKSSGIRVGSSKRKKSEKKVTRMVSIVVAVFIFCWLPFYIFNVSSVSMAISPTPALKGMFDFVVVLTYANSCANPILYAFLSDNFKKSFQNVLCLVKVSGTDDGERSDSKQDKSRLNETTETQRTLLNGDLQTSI
T2 sequence (P35346 whole entry): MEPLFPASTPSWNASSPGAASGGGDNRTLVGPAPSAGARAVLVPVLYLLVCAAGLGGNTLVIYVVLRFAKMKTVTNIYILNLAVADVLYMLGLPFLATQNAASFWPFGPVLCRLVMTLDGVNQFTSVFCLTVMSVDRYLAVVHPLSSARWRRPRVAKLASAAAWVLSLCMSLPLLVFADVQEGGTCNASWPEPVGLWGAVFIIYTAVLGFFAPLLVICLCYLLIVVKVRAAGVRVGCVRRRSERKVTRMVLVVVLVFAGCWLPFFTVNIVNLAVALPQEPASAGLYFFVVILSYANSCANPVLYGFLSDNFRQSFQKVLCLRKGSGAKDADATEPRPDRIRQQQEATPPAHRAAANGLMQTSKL
T4 sequence (P30872 whole entry): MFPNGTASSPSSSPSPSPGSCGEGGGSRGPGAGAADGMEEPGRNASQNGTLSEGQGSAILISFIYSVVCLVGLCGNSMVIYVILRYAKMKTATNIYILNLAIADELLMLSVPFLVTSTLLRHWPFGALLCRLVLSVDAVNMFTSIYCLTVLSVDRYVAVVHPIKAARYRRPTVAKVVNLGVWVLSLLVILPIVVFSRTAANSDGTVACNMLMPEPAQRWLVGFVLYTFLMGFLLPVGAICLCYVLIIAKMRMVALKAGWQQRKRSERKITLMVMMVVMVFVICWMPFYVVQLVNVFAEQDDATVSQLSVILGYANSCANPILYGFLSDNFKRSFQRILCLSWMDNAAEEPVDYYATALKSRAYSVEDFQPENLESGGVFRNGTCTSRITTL
T1 sequence (P32745 whole entry): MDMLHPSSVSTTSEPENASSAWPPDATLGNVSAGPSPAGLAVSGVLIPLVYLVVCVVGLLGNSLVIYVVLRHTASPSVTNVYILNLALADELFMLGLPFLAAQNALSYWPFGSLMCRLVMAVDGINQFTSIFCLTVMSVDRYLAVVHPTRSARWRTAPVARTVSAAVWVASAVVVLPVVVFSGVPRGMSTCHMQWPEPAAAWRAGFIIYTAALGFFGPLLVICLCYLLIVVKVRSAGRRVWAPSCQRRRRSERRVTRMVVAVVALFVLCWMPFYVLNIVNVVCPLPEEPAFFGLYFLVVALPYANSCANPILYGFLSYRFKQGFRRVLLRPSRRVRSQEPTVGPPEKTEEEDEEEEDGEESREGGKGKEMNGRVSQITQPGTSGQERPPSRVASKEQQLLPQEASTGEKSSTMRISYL

## CSc1cccn2c(C(C)(C)NC(=O)[C@H]3[C@@H]4CNC[C@@H]43)ncc12 [Compound 1a, (1R,5S,6R)-N-(2-(8-(Methylthio)Imidazo[1,5-a]Pyridin-3-yl)Prop-2-yl)-3-Azabicyclo[3.1.0]Hexane-6-Carboxamide]
Rat CFA pain model [1]; 10 mg/kg oral group
  Paw withdrawal threshold (PWT(g)) (average) 0 hours: 3.016 g
Rat CFA pain model [1]; 10 mg/kg oral
  Paw withdrawal threshold (PWT(g)) (average) 1 hour: 4.020 g
  Paw withdrawal threshold (PWT(g)) (average) 2 hours: 6.722 * g
  Paw withdrawal threshold (PWT(g)) (average) 4 hours: 8.438 **** g
Rat CFA pain model [1]; 30 mg/kg oral group
  Paw withdrawal threshold (PWT(g)) (average) 0 hours: 3.118 g
Rat CFA pain model [1]; 30 mg/kg oral
  Paw withdrawal threshold (PWT(g)) (average) 1 hour: 4.173 g
  Paw withdrawal threshold (PWT(g)) (average) 2 hours: 7.637 ** g
  Paw withdrawal threshold (PWT(g)) (average) 4 hours: 10.958 **** ### g
Rat CFA pain model [1]; 100 mg/kg oral group
  Paw withdrawal threshold (PWT(g)) (average) 0 hours: 3.118 g
Rat CFA pain model [1]; 100 mg/kg oral
  Paw withdrawal threshold (PWT(g)) (average) 1 hour: 3.855 g
  Paw withdrawal threshold (PWT(g)) (average) 2 hours: 9.549 **** g
  Paw withdrawal threshold (PWT(g)) (average) 4 hours: 9.687 **** # g
Rat CFA pain model [1]; 30 mpk and 100 mpk groups, oral, 4 hours after administration
  efficacy compared with positive control compound indomethacin (in words): significantly better than that of the positive control compound indomethacin
Rat CFA pain model [1]; oral 10, 30, 100 mg/kg, 2 and 4 hours after administration
  inhibition of CFA-induced mechanical hyperalgesia (in words): dose-dependently inhibit
Rat CFA pain model [1]; oral, inhibition of CFA-induced mechanical hyperalgesia
  onset dose: 10 mg/kg
Human SSTR3
  Ki: > 3420 nM
Human SSTR5
  Ki: > 5650 nM
Human SSTR2
  Ki: > 5310 nM
Human SSTR1
  Ki: > 8280 nM
Rat CFA pain model [2]
  Mechanical allodynia test (PWT (g), mean) Baseline: 3.554 g
Rat CFA pain model [2]; 10 mg/kg I.P.
  Mechanical allodynia test (PWT (g), mean) 1 hour: 6.484 * # g
  Mechanical allodynia test (PWT (g), mean) 3 hours: 8.371 **** g
  inhibition of CFA-induced mechanical allodynia (in words): inhibited CFA-induced mechanical allodynia
Rat CFA pain model [2]; 10 mg/kg I.P., 1 hour and 3 hours after administration
  efficacy compared with Control Compound A (in words): significantly better than that of Control Compound A
Human SSTR4
  Ki: 0.00552 µM
Human SSTR4; binding selectivity to SSTRs 1-5
  SSTR4 selectivity (in words): the best
Human SSTR4; ratio of binding Ki values, selectivity
  SSTR4 /SSTR 1: > 1500
[3]
  half-life: 2.58 ± 1.07 h
[3]; read-out: Apparent volume of distribution
  Vd: 5.12 ± 1.14 L/kg
[3]; read-out: Clearance rate
  clearance: 53 ± 1.76 mL/min/kg

## Cc1cccc2c(C(C)(C)NC(=O)[C@H]3[C@@H]4CNC[C@@H]43)nn(C)c12 [Control Compound A, reference compound]
Human SSTR3
  Ki: > 3420 nM
Human SSTR5
  Ki: > 5650 nM
Human SSTR2
  Ki: > 5310 nM
Human SSTR1
  Ki: 1800 nM
Rat CFA pain model [2]
  Mechanical allodynia test (PWT (g), mean) Baseline: 3.765 g
Rat CFA pain model [2]; 10 mg/kg I.P.
  Mechanical allodynia test (PWT (g), mean) 1 hour: 3.813 g
  Mechanical allodynia test (PWT (g), mean) 3 hours: 6.237 * g
  inhibition of CFA-induced mechanical allodynia (in words): inhibited CFA-induced mechanical allodynia
